Earlier results on three sequences are cited in patent US20070275871A1 (BIOREXIS TECHNOLOGY, INC., priority 2003, published 2007).

Series [1] has as its target T1, extracellular domain of EPO receptor (Homo sapiens, UniProt P19235).
T1 sequence (P19235 25-250 limits assumed): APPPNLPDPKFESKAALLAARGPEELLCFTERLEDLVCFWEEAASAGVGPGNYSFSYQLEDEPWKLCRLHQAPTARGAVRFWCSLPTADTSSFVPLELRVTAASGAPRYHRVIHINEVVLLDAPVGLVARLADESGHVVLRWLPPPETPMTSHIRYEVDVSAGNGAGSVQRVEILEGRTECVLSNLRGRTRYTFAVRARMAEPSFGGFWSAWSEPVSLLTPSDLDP

Series [2] deals with nascent red blood cell production. As to conditions: mice, two different in vivo assays of nascent red blood cell production.
For series [3], the system named is cell lines engineered to be responsive to EPO.
Series [4] has as its target T2, EPO receptor (Homo sapiens, UniProt P19235).
T2 sequence (P19235 25-508): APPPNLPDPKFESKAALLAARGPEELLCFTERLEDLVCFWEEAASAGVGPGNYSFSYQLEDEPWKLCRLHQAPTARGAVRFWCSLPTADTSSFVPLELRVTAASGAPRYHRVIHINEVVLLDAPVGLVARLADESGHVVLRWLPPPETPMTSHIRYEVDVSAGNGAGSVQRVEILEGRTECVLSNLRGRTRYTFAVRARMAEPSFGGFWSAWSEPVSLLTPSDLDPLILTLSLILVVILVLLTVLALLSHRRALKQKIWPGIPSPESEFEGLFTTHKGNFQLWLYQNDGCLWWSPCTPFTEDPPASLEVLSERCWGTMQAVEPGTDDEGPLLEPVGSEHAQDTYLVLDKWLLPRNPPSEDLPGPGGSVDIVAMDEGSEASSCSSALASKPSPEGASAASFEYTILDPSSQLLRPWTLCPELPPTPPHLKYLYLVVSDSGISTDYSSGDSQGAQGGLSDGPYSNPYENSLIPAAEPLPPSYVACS

For series [5], the target named is T2, EPO receptor. As to conditions: N- and C-terminal deletions of EMP-1.

Like-named read-outs stand apart in the source and are kept apart here.

The term Kd denotes the concentration at which binding is half-saturated. Turning to CRIGPITWVC, the Kd in series [1] (EPO domain-weak-binding consensus sequence, read-out: Kd) was 10 mM.
GGTYSCHFGPLTWVCKPQGG [EMP-1]: in the series with EPO responsive cells, the “cascade of phosphorylation events and cell cycle progression” value was “induce a similar cascade of phosphorylation events and cell cycle progression”. Also, in series [1] (read-out: affinity (Kd)), the Kd is 0.0002 mM. The erythropoietic effects entry in series [2] is “significant erythropoietic effects”. Further, the cellular proliferation result in series [3] is “cause cellular proliferation”. Besides, on EPO receptor [4], the “competition with EPO in receptor binding assays” value is given as “competes with EPO”.
On to YSCHFGPLTWVCK [EMP-20], for which the “activity in the assays for EPO mimetic action” value in the series with EPO receptor [5] is recorded as “minimal active peptide”.
